From PubChem BioAssay (NCI)
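Protocol summary: plate cells (96-well), add compound at 5 concentrations, incubate 48 h, interpolate endpoints linearly. Abbreviation: GI50, concentration required for 50% inhibition of growth. At the TGI there is no net growth.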

Columns and labels:
Assay in all cases: growth of human tumour cells (NCI), 48 h
CAKI-1 renal = test system: CAKI-1 renal
MDA-MB-435 = test system: MDA-MB-435
SNB-75 CNS = test system: SNB-75 CNS
OVCAR-5 ovarian = test system: OVCAR-5 ovarian
SR leukemia = test system: SR leukemia
SK-MEL-28 melanoma = test system: SK-MEL-28 melanoma
SW-620 colon = test system: SW-620 colon
HOP-62 NSCLC = test system: HOP-62 NSCLC
UACC-257 melanoma = test system: UACC-257 melanoma
SK-MEL-2 melanoma = test system: SK-MEL-2 melanoma
786-0 renal = test system: 786-0 renal
UO-31 renal = test system: UO-31 renal
K-562 leukemia = test system: K-562 leukemia
HCT-15 colon = test system: HCT-15 colon
EKVX NSCLC = test system: EKVX NSCLC
TK-10 renal = test system: TK-10 renal
MCF7 breast = test system: MCF7 breast
A498 renal = test system: A498 renal
BT-549 breast = test system: BT-549 breast
NCI-H460 lung = test system: NCI-H460 lung
SNB-19 CNS = test system: SNB-19 CNS
HCC-2998 colon = test system: HCC-2998 colon
T-47D breast = test system: T-47D breast
MOLT-4 leukemia = test system: MOLT-4 leukemia
PC-3 prostate = test system: PC-3 prostate
CCRF-CEM leukemia = test system: CCRF-CEM leukemia
DU-145 prostate = test system: DU-145 prostate
MALME-3M melanoma = test system: MALME-3M melanoma
OVCAR-8 ovarian = test system: OVCAR-8 ovarian
MDA-MB-231 breast = test system: MDA-MB-231 breast
SK-OV-3 ovarian = test system: SK-OV-3 ovarian
OVCAR-4 ovarian = test system: OVCAR-4 ovarian
KM12 colon = test system: KM12 colon
RXF 393 renal = test system: RXF 393 renal
SF-268 CNS = test system: SF-268 CNS
NCI/ADR-RES ovarian = test system: NCI/ADR-RES ovarian
HS 578T breast = test system: HS 578T breast
COLO 205 colon = test system: COLO 205 colon
SF-295 CNS = test system: SF-295 CNS
A549 NSCLC = test system: A549 NSCLC
HL-60(TB) leukemia = test system: HL-60(TB) leukemia
SF-539 CNS = test system: SF-539 CNS
IGROV1 ovarian = test system: IGROV1 ovarian
LOX IMVI melanoma = test system: LOX IMVI melanoma
U251 CNS = test system: U251 CNS
SK-MEL-5 melanoma = test system: SK-MEL-5 melanoma
SN12C renal = test system: SN12C renal
HCT-116 colon = test system: HCT-116 colon
ACHN renal = test system: ACHN renal
HOP-92 NSCLC = test system: HOP-92 NSCLC
NCI-H226 lung = test system: NCI-H226 lung
M14 melanoma = test system: M14 melanoma
NCI-H522 lung = test system: NCI-H522 lung
HT29 colon = test system: HT29 colon
RPMI-8226 leukemia = test system: RPMI-8226 leukemia
UACC-62 melanoma = test system: UACC-62 melanoma

Work on `CN(C)CCN(C)c1ccc2ncc(C#Cc3cncc(C(=O)Nc4ccc(CN5CCN(C)CC5)c(C(F)(F)F)c4)c3)n2n1` yielded a GI50 (CAKI-1 renal) of 4 µM, a TGI (CAKI-1 renal) of 10.4 µM and a GI50 (MDA-MB-435) of 2.17 µM. The TGI (MDA-MB-435) was 8.72 µM, the GI50 (SNB-75 CNS) was 0.879 µM and the TGI (SNB-75 CNS) was 6.57 µM. The GI50 (OVCAR-5 ovarian) was 6.21 µM, the TGI (OVCAR-5 ovarian) was 12.9 µM and the GI50 (SR leukemia) was 0.614 µM. For the same molecule, the TGI (SR leukemia) was 1.63 µM, the GI50 (SK-MEL-28 melanoma) was 7.58 µM and the TGI (SK-MEL-28 melanoma) was 14.3 µM. For the same molecule, the GI50 (SW-620 colon) was 0.949 µM, the TGI (SW-620 colon) was 2.27 µM and the GI50 (HOP-62 NSCLC) was 3.98 µM. For the same molecule, the TGI (HOP-62 NSCLC) was 10.4 µM, the GI50 (UACC-257 melanoma) was 6.04 µM and the TGI (UACC-257 melanoma) was 12.3 µM. It also gave a GI50 (SK-MEL-2 melanoma) of 6.09 µM, a TGI (SK-MEL-2 melanoma) of 12.5 µM and a GI50 (786-0 renal) of 6.9 µM. For the same molecule, the TGI (786-0 renal) was 13.5 µM, the GI50 (UO-31 renal) was 6.05 µM and the TGI (UO-31 renal) was 12.4 µM. It also gave a GI50 (K-562 leukemia) of 0.0227 µM, a TGI (K-562 leukemia) of 0.787 µM and a GI50 (HCT-15 colon) of 1.14 µM. For the same molecule, the TGI (HCT-15 colon) was 3.14 µM, the GI50 (EKVX NSCLC) was 4.81 µM and the TGI (EKVX NSCLC) was 11.2 µM. It also gave a GI50 (TK-10 renal) of 12.1 µM, a TGI (TK-10 renal) of 19.5 µM and a GI50 (MCF7 breast) of 0.564 µM. The TGI (MCF7 breast) was 1.47 µM, the GI50 (A498 renal) was 6.05 µM and the TGI (A498 renal) was 12.2 µM. The GI50 (BT-549 breast) was 3.37 µM, the TGI (BT-549 breast) was 9.44 µM and the GI50 (NCI-H460 lung) was 0.891 µM. For the same molecule, the TGI (NCI-H460 lung) was 1.69 µM, the GI50 (SNB-19 CNS) was 4.75 µM and the TGI (SNB-19 CNS) was 10.8 µM. It also gave a GI50 (HCC-2998 colon) of 1 µM, a TGI (HCC-2998 colon) of 2.08 µM and a GI50 (T-47D breast) of 7.83 µM. For the same molecule, the TGI (T-47D breast) was 15.5 µM, the GI50 (MOLT-4 leukemia) was 0.863 µM and the TGI (MOLT-4 leukemia) was 2.62 µM. The GI50 (PC-3 prostate) was 5.07 µM, the TGI (PC-3 prostate) was 11.2 µM and the GI50 (CCRF-CEM leukemia) was 1.08 µM. For the same molecule, the TGI (CCRF-CEM leukemia) was 2.91 µM, the GI50 (DU-145 prostate) was 3.54 µM and the TGI (DU-145 prostate) was 9.9 µM. For the same molecule, the GI50 (MALME-3M melanoma) was 2.7 µM, the TGI (MALME-3M melanoma) was 9.71 µM and the GI50 (OVCAR-8 ovarian) was 1.95 µM. The TGI (OVCAR-8 ovarian) was 7.06 µM, the GI50 (MDA-MB-231 breast) was 0.889 µM and the TGI (MDA-MB-231 breast) was 2.17 µM. The GI50 (SK-OV-3 ovarian) was 8.01 µM, the TGI (SK-OV-3 ovarian) was 15 µM and the GI50 (OVCAR-4 ovarian) was 0.933 µM. The TGI (OVCAR-4 ovarian) was 2.75 µM, the GI50 (KM12 colon) was 0.386 µM and the TGI (KM12 colon) was 4.66 µM. For the same molecule, the GI50 (RXF 393 renal) was 0.876 µM, the TGI (RXF 393 renal) was 1.63 µM and the GI50 (SF-268 CNS) was 5.58 µM. It also gave a TGI (SF-268 CNS) of 13.3 µM, a GI50 (NCI/ADR-RES ovarian) of 2.13 µM and a TGI (NCI/ADR-RES ovarian) of 7.8 µM. For the same molecule, the GI50 (HS 578T breast) was 1.68 µM, the TGI (HS 578T breast) was 9.75 µM and the GI50 (COLO 205 colon) was 1.21 µM. It also gave a TGI (COLO 205 colon) of 6.51 µM, a GI50 (SF-295 CNS) of 0.801 µM and a TGI (SF-295 CNS) of 1.76 µM. For the same molecule, the GI50 (A549 NSCLC) was 0.947 µM, the TGI (A549 NSCLC) was 2.15 µM and the GI50 (HL-60(TB) leukemia) was 1.28 µM. It also gave a TGI (HL-60(TB) leukemia) of 2.39 µM, a GI50 (SF-539 CNS) of 0.615 µM and a TGI (SF-539 CNS) of 1.32 µM. For the same molecule, the GI50 (IGROV1 ovarian) was 1.59 µM, the TGI (IGROV1 ovarian) was 5.7 µM and the GI50 (LOX IMVI melanoma) was 0.75 µM. The TGI (LOX IMVI melanoma) was 1.42 µM, the GI50 (U251 CNS) was 0.883 µM and the TGI (U251 CNS) was 1.78 µM. For the same molecule, the GI50 (SK-MEL-5 melanoma) was 5.08 µM, the TGI (SK-MEL-5 melanoma) was 10.9 µM and the GI50 (SN12C renal) was 2.23 µM. The TGI (SN12C renal) was 7.79 µM, the GI50 (HCT-116 colon) was 1.57 µM and the TGI (HCT-116 colon) was 6.96 µM. The GI50 (ACHN renal) was 2.51 µM, the TGI (ACHN renal) was 8.72 µM and the GI50 (HOP-92 NSCLC) was 1.71 µM. For the same molecule, the TGI (HOP-92 NSCLC) was 8.31 µM, the GI50 (NCI-H226 lung) was 1.23 µM and the TGI (NCI-H226 lung) was 8.28 µM. For the same molecule, the GI50 (M14 melanoma) was 0.854 µM, the TGI (M14 melanoma) was 1.71 µM and the GI50 (NCI-H522 lung) was 5.08 µM. The TGI (NCI-H522 lung) was 11.8 µM, the GI50 (HT29 colon) was 0.822 µM and the TGI (HT29 colon) was 1.91 µM. For the same molecule, the GI50 (RPMI-8226 leukemia) was 0.955 µM, the TGI (RPMI-8226 leukemia) was 2.16 µM and the GI50 (UACC-62 melanoma) was 8.21 µM. It also gave a TGI (UACC-62 melanoma) of 15.7 µM.
